Test results reported in ChEMBL document CHEMBL1201862, “PubChem BioAssay data set” (2004).
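Assay format: 96-well plates, 48-hour exposure. Abbreviation: GI50, concentration required for 50% inhibition of growth.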 Activity calls are given as the source filed them. No stated cut-off is given here; in the data, active = GI50 up to about 1.1 µM and inactive = higher.

Legend:
Assay in all cases: NCI-60 cell line screen, 48 h
786-0 = tested on: 786-0
ACHN = tested on: ACHN
BT-549 = tested on: BT-549
COLO 205 = tested on: COLO 205
EKVX = tested on: EKVX
LOX IMVI = tested on: LOX IMVI
M14 = tested on: M14
MCF7 = tested on: MCF7
MDA-MB-231 = tested on: MDA-MB-231
MDA-MB-435 = tested on: MDA-MB-435
OVCAR-3 = tested on: OVCAR-3
PC-3 = tested on: PC-3
SF-539 = tested on: SF-539
SK-MEL-28 = tested on: SK-MEL-28
SN12C = tested on: SN12C
SNB-19 = tested on: SNB-19
UACC-62 = tested on: UACC-62
HCC 2998 = tested on: HCC 2998
NCI-H522 = tested on: NCI-H522
SR = tested on: SR

SMILES	GI50 (786-0)	GI50 (ACHN)	GI50 (BT-549)	GI50 (COLO 205)	GI50 (EKVX)	GI50 (LOX IMVI)	GI50 (M14)	GI50 (MCF7)	GI50 (MDA-MB-231)	GI50 (MDA-MB-435)	GI50 (OVCAR-3)	GI50 (PC-3)	GI50 (SF-539)	GI50 (SK-MEL-28)	GI50 (SN12C)	GI50 (SNB-19)	GI50 (UACC-62)	GI50 (HCC 2998)	GI50 (NCI-H522)	GI50 (SR)
COC(=O)c1cc(NC(=O)c2cc(NC(=O)c3cc([N+](=O)[O-])cn3C)cn2C)cn1C	> 100 µM (inactive)	66.1 µM (inactive)	> 100 µM (inactive)	44.4 µM (inactive)	34.1 µM (inactive)	56.2 µM (inactive)	> 100 µM (inactive)	> 100 µM (inactive)	35.6 µM (inactive)	98.6 µM (inactive)	> 100 µM (inactive)	94.2 µM (inactive)	> 100 µM (inactive)	> 100 µM (inactive)	> 100 µM (inactive)	59.6 µM (inactive)	55.6 µM (inactive)			
Oc1ccc(Br)cc1/C=N/c1cccc(C(F)(F)F)c1	30.4 µM (inactive)	> 100 µM (inactive)	22.3 µM (inactive)	96.6 µM (inactive)	27.1 µM (inactive)	18.3 µM (inactive)	17.5 µM (inactive)	14.5 µM (inactive)	23.4 µM (inactive)	30.5 µM (inactive)	37 µM (inactive)	7.16 µM (inactive)	20.8 µM (inactive)	36.1 µM (inactive)	30.5 µM (inactive)	39.4 µM (inactive)	25.1 µM (inactive)	23.1 µM (inactive)	> 100 µM (inactive)	
CC(C)OC1OC(CO)C(O)CC1n1cc(F)c(=O)[nH]c1=O (stereo not given)	> 100 µM (inactive)	> 100 µM (inactive)	> 100 µM (inactive)	> 100 µM (inactive)	> 100 µM (inactive)	94 µM (inactive)	> 100 µM (inactive)	46 µM (inactive)	> 100 µM (inactive)	> 100 µM (inactive)	> 100 µM (inactive)	> 100 µM (inactive)	> 100 µM (inactive)	> 100 µM (inactive)	> 100 µM (inactive)	> 100 µM (inactive)	> 100 µM (inactive)	> 100 µM (inactive)	16.2 µM (inactive)	
Cc1cc(S(=O)(=O)Nc2nc(N)nc(N3N=CCC3C)n2)c(SCC(=O)O)cc1Cl (stereo not given)	> 10 µM (inactive)	> 10 µM (inactive)	> 10 µM (inactive)	> 10 µM (inactive)	> 10 µM (inactive)	> 10 µM (inactive)	> 10 µM (inactive)	> 10 µM (inactive)	> 10 µM (inactive)	> 10 µM (inactive)	> 10 µM (inactive)	> 10 µM (inactive)	> 10 µM (inactive)	> 10 µM (inactive)	> 10 µM (inactive)	> 10 µM (inactive)	> 10 µM (inactive)	> 10 µM (inactive)	> 10 µM (inactive)	
N=C(N)NS(=O)(=O)c1ccc(Nc2c3ccccc3nc3c(C(=O)NNCCO)cccc23)cc1	0.436 µM (active)	0.565 µM (active)	0.121 µM (active)	0.183 µM (active)	0.361 µM (active)	0.165 µM (active)	0.21 µM (active)	0.109 µM (active)	0.261 µM (active)	0.0585 µM (active)	0.134 µM (active)	0.303 µM (active)	0.303 µM (active)	0.252 µM (active)	0.282 µM (active)	0.276 µM (active)	0.27 µM (active)	0.211 µM (active)	0.127 µM (active)	
O=S1(=O)c2ccccc2N2CCCc3cc(Cl)cc1c32	40.4 µM (inactive)	> 100 µM (inactive)	> 100 µM (inactive)	> 100 µM (inactive)	> 100 µM (inactive)	> 100 µM (inactive)	> 100 µM (inactive)	> 100 µM (inactive)	37 µM (inactive)	> 100 µM (inactive)	67.5 µM (inactive)	> 100 µM (inactive)	35 µM (inactive)	> 100 µM (inactive)	> 100 µM (inactive)	56.6 µM (inactive)	60.1 µM (inactive)	> 100 µM (inactive)		> 100 µM (inactive)
CC(=O)Oc1c(N2CCCCC2)c(C(=O)c2ccccc2)c(O)c2ccn(N(C)C)c12	17.5 µM (inactive)	18.5 µM (inactive)	20.6 µM (inactive)	16.7 µM (inactive)	16.1 µM (inactive)	14.1 µM (inactive)	21.7 µM (inactive)	10.5 µM (inactive)	14 µM (inactive)	19.7 µM (inactive)	19.6 µM (inactive)	10.9 µM (inactive)	18.5 µM (inactive)	19.1 µM (inactive)	18.5 µM (inactive)	25.4 µM (inactive)	15 µM (inactive)	18.5 µM (inactive)		
